Patent EP1174152B1, “Inclusion complex of an opioid peptide with cyclodextrin” (COUNCIL OF SCIENTIFIC AND INDUSTRIAL RESEARCH, priority 2000, dated 2002)

Tests used:
rats = assay: 30 days toxicity study by subcutaneous route in rat; assay type: in vivo; conditions: once daily for 30 consecutive days, 7.5, 15.0 and 30.0 mg/kg
Protocol: (§1) 30 days toxicity study of L-Tyrosyl-D-alanyl-glycyl-N-methylphenylanyl-glycyl-isopropylamide in rat and rhesus monkey by subcutaneous route.
(§2) Compound L-Tyrosyl-D-alanyl-glycyl-N-methylphenylalanyl-glycyl-isopropylamide dissolved in saline was given daily by subcutaneous route to groups of rats (n=10 males and 10 females in each group) and rhesus monkeys (n=2 males and 2 females in each group) once daily for 30 consecutive days. The dose levels used in rats were 0 0, 7.5, 15.0 and 30.0 mg/kg and in monkeys 0.0, 3.75, 7.5 and 15 mg/kg. Dose levels were selected on the basis of rat ED of 3.0 mg/kg and extrapolation thereof in the monkey. […]
(§3) Body weights (weekly in rats, initial and day 30 in monkeys), daily food (rat and monkeys) and water (rat only) consumption and parameters of hematology, urinalysis and blood biochemistry of the animals was recorded All the animals were sacrificed at the end of 30 days Necropsy was performed and histophathological examination of all the important organs and tissues were done. […]
(§4) During necropsy examination of the external surface of the body, all orifices, and the cranial thoracic and abdominal cavities and their contents was performed. […] Liver, kidneys, adrenals, brain heart lungs, spleen and gonads were weighed, and their rdative weights were also calculated. […]

rhesus monkeys = assay: 30 days toxicity study by subcutaneous route in rhesus monkey; assay type: in vivo; conditions: once daily for 30 consecutive days, 3.75, 7.5 and 15 mg/kg
Protocol: as §1, §2, §3, §4

leucine amino peptidase = conditions: enzyme hydrolysis with leucine amino peptidase; cited from earlier work

Compound | 30-day toxicity study outcome (rats) | 30-day toxicity study outcome (rhesus monkeys) | half life (leucine amino peptidase) [min]
CC(C)NC(=O)CNC(=O)[C@H](Cc1ccccc1)N(C)C(=O)CNC(=O)[C@@H](C)NC(=O)[C@@H](N)Cc1ccc(O)cc1 [L-Tyrosyl-D-alanyl-glycyl-N-methylphenylalanyl-glycyl-isopropylamide] | found safe | found safe | 
Leu-enkephalin |  |  | 45
